Data published in patent US20050043331A1, “Substituted 3-(2,5-disubstituted)pyridyl-4-aryl pyrroles for treating inflammatory diseases” (priority 2002, published 2005).
Where two headings read alike, the source gives them in different places.

Key:
TNF-α [1] = experiment: In-vitro whole cell assay for TNF-α inhibition (LPS-stimulated PBMC, ELISA); type: cell-based; settings: TNF-α by ELISA
In short: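 Read-out: ELISA for TNF-α in supernatants after overnight 37° C LPS challenge (stock 200 ng/mL, RPMI/1% FCS). Cells: Ficoll-isolated human PBMC at 1.67×10^6/mL, exposed to test compound for 1 h at 37° C beforehand. Run in duplicate.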

P38 [2] = target: T1, P38 (Homo sapiens, UniProt Q16539); experiment: p38 inhibition in-vitro enzyme assay; type: biochemical; settings: recombinant 6×His-p38
Protocol: Purified recombinant 6×His-p38 and GST-ATF2 (both expressed in Baculovirus) were served as enzyme and substrate in our p38 inhibition assay. The enzyme reaction was performed in the anti-GST antibody pre-coated 96-well ELISA plate.
A 96-well ELISA plate was coated with 100 μl/well of anti-GST antibody (from Amersham) at a concentration of […] and incubated overnight at 4° C. The ELISA plate was blocked with 100 μl/well of 1% BSA at 25° C. for at least 2 hours, then the plate was washed with 300 μl PBST. The enzyme reaction was started by adding 10 μl of p38 recombinant protein (0.05 nM in final concentration), 10 μl of compound in desired concentration, 10 μl of substrates (670 μM ATP, 200 nM GST-ATF2 in final concentration) and 70 μl of reaction buffer (50 mM HEPES, pH 7.4, 100 mM NaCl, 10 mM MgCl2) and the mixture was incubated at 37° C. for 30 min. Washing the reaction plate with 3×300 μl/well of PBST stopped the enzyme reaction. Detection of the phosphorylated ATF2 substrate was done by the addition of 100 μl of anti-Pi-ATF2 antibody (from Cell Signaling) at a 1:200 dilution. The mixture was incubated at 25° C. for 30 min. A solution of 100 μl of HRP-conjugated goat anti-rabbit antibody (from Pierce) at a 1:250 dilution was added and the mixture and incubated at 25° C. for 30 min. The plate was washed with 6×300 μI PBST and 100 μl of OPD substrate (from Sigma) was then added. The mixture was incubated at 25° C. for 10 min. before adding 100 μl of 3 N H2SO4. The plate was read at 490 nm.
The % inhibition of each test compound was calculated by the following formula: % inhibition=[1−(sample−BKG)/(CTRL−BKG)]×100. The IC50 of each test compound was determined by a triplicate-8 point dose titration curve by Prism GraphPad program. […]

TNF-α [3] = experiment: In vivo rodent assay for inhibition of LPS-induced TNF-α production; design: species or system Mice (BALB/cJ females); settings: Mus musculus, po, 10 mg/kg oral
In short: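 Female BALB/cJ mice or male Lewis rats, fasted 30 min, received compound orally (mg/kg) at various times before intraperitoneal LPS at 1 mg/kg. Blood was collected by cardiac puncture 1 h after LPS, and serum TNF-α was quantified by species-specific ELISA.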

P38 [4] = target: T1, P38; experiment: P38 cell, 1 μM LJ; type: cell-based; design: unit not given here
[5] = 0.5 h, 0.5 h, read-out: Mouse 10 mg/kg % inhib 0.5 h

T1 sequence (Q16539 whole entry): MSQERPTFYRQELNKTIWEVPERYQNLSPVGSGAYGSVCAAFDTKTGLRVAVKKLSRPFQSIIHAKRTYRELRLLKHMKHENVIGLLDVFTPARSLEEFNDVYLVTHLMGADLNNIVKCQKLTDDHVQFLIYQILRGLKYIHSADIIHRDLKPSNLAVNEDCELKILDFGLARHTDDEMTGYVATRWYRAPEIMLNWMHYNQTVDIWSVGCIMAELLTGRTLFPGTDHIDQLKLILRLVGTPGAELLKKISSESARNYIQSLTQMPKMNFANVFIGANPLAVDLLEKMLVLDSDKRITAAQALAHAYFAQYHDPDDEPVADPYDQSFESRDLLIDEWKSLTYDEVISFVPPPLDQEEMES

Structure (SMILES) | IC50 (TNF-α [1]) [nM] | IC50 (P38 [2]) [nM] | inhibition in vivo at 10 mg/kg (TNF-α [3]; [5]) [%] | P38 cell 1 μM LJ (P38 [4]) | inhibition in vivo at 10 mg/kg (TNF-α [3]; 2 h, 2 h, read-out: Mouse 10 mg/kg % inhib 2 h) [%]
Fc1ccc(-c2cn3c(c2-c2ccncc2)CN(Cc2ccccc2)CC3)cc1 [Cpd 29, 7-(4-Fluorophenyl)-1,2,3,4-tetrahydro-2-(phenylmethyl)-8-(4-pyridinyl)-pyrrolo[1,2-a]pyrazine] | 11 | 1660 | -6 |  | 
COC(=O)c1c(-c2ccc(F)cc2)c(-c2ccncc2)c(Cc2ccc(N(C)C)cc2)n1C [Cpd 102] | 118 | > 10000 | 15 | 12 | 
O=C1c2c(-c3ccncc3)c(-c3ccc(F)cc3)cn2C(=O)N1Cc1ccccc1 [Cpd 50] | 26 | > 10000 | 51 |  | 
CCCc1c(-c2ccnc(N[C@@H](C)COC)n2)c(-c2ccc(F)cc2)cn1CCN1CCOCC1 [Cpd 65] | 1 | 21 | -1 | 102 | 
CCCc1c(-c2ccnc(N[C@@H](C)COC)n2)c(-c2ccc(F)cc2)cn1C(=O)OC(C)(C)C [Cpdd 58] | 50 | 1350 |  |  | 
CCN1CCCC1CNc1c(-c2ccncc2)c(-c2ccc(F)cc2)c(C(=O)OC)n1C (stereo not shown) [Cpd 109] | 7750 | 6180 |  |  | 
OCc1c(-c2ccc(F)cc2)c(-c2ccncc2)cn1CCN1CCOCC1 [Cpd 59] | 277 | 16 | -50 | 4 | 
COC(=O)c1c(-c2ccc(F)cc2)c(-c2ccncc2)c(NCc2ccncc2)n1C [Cpd 103] | 145 | > 10000 | -22 | 20 | 
C[C@H](Nc1nccc(-c2c[nH]cc2-c2ccc(F)cc2)n1)c1ccccc1 [Cpd 67] | 3 | 55 |  | 90 | 
CCOC(=O)c1[nH]cc(-c2ccncc2)c1-c1cc(F)cc(F)c1 [Cpd 62] | 114 | 3470 | -14 | 0 | 
COC(=O)C(=O)c1c(-c2ccc(F)cc2)c(-c2ccncc2)c(N2CCNCC2)n1C [Cpd 108] | 28 |  | 52 | 15 | 
COC(=O)c1c(-c2ccc(F)cc2)c(-c2ccncc2)c(N2CCOCC2)n1C [Cpd 81] | 47 |  | -41 | 12 | 
CCCc1[nH]cc(-c2ccc(F)cc2)c1-c1ccnc(N[C@@H](C)COC)n1 [Cpd 61] | 86 | 5 | -35 | 91 | 
COC(=O)c1c(-c2ccc(F)cc2)c(-c2ccncc2)c(N2CCN(C)CC2)n1C [Cpd 10, 3-(4-Fluorophenyl)-1-methyl-5-(4-methyl-1-piperazinyl)-4-(4-pyridinyl)-1H-pyrrole-2-carboxylic acid methyl ester] | 95 |  | 89 | 1 | 
O=C(NCc1ccccc1)c1[nH]cc(-c2ccc(F)cc2)c1-c1ccncc1 [Cpd 51] | 14 | > 10000 | -60 |  | 
Nc1[nH]cc(-c2ccc(F)cc2)c1-c1ccncc1 [Cpd 66] | 905 | 905 |  | 6 | 
CCOC(=O)c1c(-c2ccc(C)cc2)c(-c2ccncc2)c(Br)n1C [Cpd 79] | 736 |  | -76 | 9 | 

Structure (SMILES) | IC50 (TNF-α [1]) [nM] | IC50 (P38 [2]) [nM] | inhibition in vivo at 10 mg/kg (TNF-α [3]; [5]) [%] | P38 cell 1 μM LJ (P38 [4]) | inhibition in vivo at 10 mg/kg (TNF-α [3]; 2 h, 2 h, read-out: Mouse 10 mg/kg % inhib 2 h) [%]
Cn1c(C(=O)OC(C)(C)C)c(-c2ccc(F)cc2)c(-c2ccncc2)c1N1CCNCC1 [Cpd 94] | 420 |  | 25 | 10 | 
COC(=O)c1c(-c2ccc(F)cc2)c(-c2ccncc2)c(N)n1C [Cpd 9, 5-Amino-3-(4-fluorophenyl)-1-methyl-4-(4-pyridinyl)-1H-pyrrole-2-carboxylic acid methyl ester] | 51 |  | 53.9 | 12 | 
CN(Cc1ccccc1)Cc1[nH]cc(-c2ccc(F)cc2)c1-c1ccncc1 [Cpd 73] | 91 |  | 37 | 78 | 
CN(C)C(=O)c1c(-c2ccc(F)cc2)c(-c2ccncc2)c(N2CCNCC2)n1C [Cpd 101] | 120 | > 10000 |  | 13 | 
CCCc1[nH]cc(-c2ccc(F)cc2)c1-c1ccnc(N[C@@H](C)c2ccccc2)n1 [Cpd 53] | 10 | 1440 | -19 |  | 
CN(C)C(=O)c1c(-c2ccc(F)cc2)c(-c2ccncc2)cn1C [Cpd 95] | 1380 |  | 33 | 21 | 
CNC(=O)c1c(-c2ccc(F)cc2)c(-c2ccncc2)c(Br)n1C [Cpd 84] | 543 |  | 53 | 11 | 
COC(=O)c1c(-c2ccc(F)cc2)c(-c2ccncc2)c(N=C(c2ccccc2)c2ccccc2)n1C [Cpd 98] | 52 |  | -49 | −2 | 
CNC(=O)c1c(-c2ccc(F)cc2)c(-c2ccncc2)cn1C [Cpd 76] | 1480 |  | 67 | 18 | 78
COC(=O)c1c(-c2ccc(F)cc2)c(-c2ccncc2)c(N(C)CCN2CCOCC2)n1C [Cpd 11, 3-(4-Fluorophenyl)-1-methyl-5-[methyl[2-(4-morpholinyl)ethyl]amino]-4-(4-pyridinyl)-1H-pyrrole-2-carboxylic acid methyl ester] | 38 | > 10000 | 66 |  | 
CCn1cc(-c2ccncc2)c(-c2ccc(F)cc2)c1C(=O)OC [Cpd 85] | 108 |  | 53 | 4 | 
CCOC(=O)c1[nH]cc(-c2ccc(F)cc2)c1-c1ccncc1 [Cpd 54] | 145 | > 10000 |  |  | 
Fc1ccc(-c2c[nH]c(CN3CCc4ccccc4C3)c2-c2ccncc2)cc1 [Cpd 72] | 40 |  | 63 | 32 | 
Fc1ccc(-c2c[nH]c(CN3CCNCC3)c2-c2ccncc2)cc1 [Cpd 56] | 63 | 856 | -41 |  | 
Cn1c(Br)c(-c2ccncc2)c(-c2ccc(F)cc2)c1C(=O)OC(C)(C)C [Cpd 82] | 1890 |  | -7 | 8 | 
OCCNCc1[nH]cc(-c2ccc(F)cc2)c1-c1ccncc1 [Cpd 63] | 148 | > 2000 |  | 8 | 
